pIC50: −log10 of the molar value.
Experiments:
IRE1α = target: T1, IRE1α (Homo sapiens, UniProt O75460); test: Biochemical assay: inhibition of RNase activity of IRE1α; conditions: enzyme 0.325 nM, substrate 100 nM, 20 minutes
T1 construct: purchased Signal Chem E31-11G
Summary of the method: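 Recombinant IRE1α (0.325 nM final) pre-incubated 30 min at room temperature with compounds (10-point ½-log series, duplicate, 4% DMSO final). Then 100 nM fluorophore/quencher-labelled RNA substrate added in 50 mM Tris, 0.5 mM MgCl2, 10 mM KCl, 2 mM DTT. Urea stop after 20 min; fluorescence read; IC50 from sigmoidal fit.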

[1] = tested on: ARPE-19 cells stably expressing XBP1 (a.a. 1-376); test: Cellular XBP1 splicing assay (NanoLuc luciferase, thapsigargin); assay type: cell-based; conditions: Homo sapiens, ARPE-19, 4 h, thapsigargin 150 nM
Summary of the method: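 ARPE-19 cells carrying an XBP1(1-376)-NanoLuc splicing reporter were pretreated with compound (10-point ½-log series, 0.117% DMSO) for 30 min, then stressed with 150 nM thapsigargin for 4 h at 37° C. Luminescence was read, and IC50 values came from sigmoidal fits of percent inhibition of control.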

T1 sequence (O75460 468-977 limits assumed): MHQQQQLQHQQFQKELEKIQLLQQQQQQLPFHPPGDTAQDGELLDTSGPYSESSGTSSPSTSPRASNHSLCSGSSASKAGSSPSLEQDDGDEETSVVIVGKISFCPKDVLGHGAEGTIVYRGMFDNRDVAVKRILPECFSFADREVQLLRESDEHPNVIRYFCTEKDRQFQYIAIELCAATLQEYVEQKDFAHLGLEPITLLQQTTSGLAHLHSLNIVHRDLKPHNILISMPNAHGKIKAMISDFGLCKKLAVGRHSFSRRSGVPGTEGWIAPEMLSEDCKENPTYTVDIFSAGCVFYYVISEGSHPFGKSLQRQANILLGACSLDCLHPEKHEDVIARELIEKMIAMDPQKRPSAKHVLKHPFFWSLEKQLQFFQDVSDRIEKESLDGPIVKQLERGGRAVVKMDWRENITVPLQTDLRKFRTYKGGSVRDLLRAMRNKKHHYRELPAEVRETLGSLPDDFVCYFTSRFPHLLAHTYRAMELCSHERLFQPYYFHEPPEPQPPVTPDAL

Compound	pIC50 (IRE1α)	pIC50 [1]
COCCN[C@H]1CC[C@H](c2cnc(N)c3c(-c4cc(F)c(NS(=O)(=O)Cc5ccccc5F)cc4F)nn(C(C)C)c32)CC1 [Compound A26, N-(4-(4-amino-1-isopropyl-7-((1r,4r)-4-((2-methoxyethyl)amino)cyclohexyl)-1H-pyrazolo[4,3-c]pyridin-3-yl)-2,5-difluorophenyl)-1-(2-fluorophenyl)methanesulfonamide]	8.82	7.89
COCCN(CCOC)[C@H]1CC[C@H](c2cnc(N)c3c(-c4cc(F)c(NS(=O)(=O)c5cc(OC)ccc5F)cc4F)nn(C(C)C)c32)CC1 [Compound A27, N-(4-(4-amino-7-((1r,4r)-4-(bis(2-methoxyethyl)amino)cyclohexyl)-1-isopropyl-1H-pyrazolo[4,3-c]pyridin-3-yl)-2,5-difluorophenyl)-2-fluoro-5-methoxybenzenesulfonamide]	7.89	7.89
COCCN[C@H]1CC[C@H](c2cnc(N)c3c(-c4cc(F)c(NS(=O)(=O)c5cc(OC)ccc5F)cc4F)nn(C(C)C)c32)CC1 [Compound A28]	8.54	8.16
COCCN(CCOC)[C@H]1CC[C@H](c2cnc(N)c3c(-c4cc(F)c(NS(=O)(=O)c5cccc(C(F)(F)F)c5)cc4F)nn(C(C)C)c32)CC1 [Compound A29, N-(4-(4-amino-7-((1r,4r)-4-(bis(2-methoxyethyl)amino)cyclohexyl)-1-isopropyl-1H-pyrazolo[4,3-c]pyridin-3-yl)-2,5-difluorophenyl)-3-(trifluoromethyl)benzenesulfonamide]	7.49	6.30
COCCN[C@H]1CC[C@H](c2cnc(N)c3c(-c4cc(F)c(NS(=O)(=O)c5cccc(C(F)(F)F)c5)cc4F)nn(C(C)C)c32)CC1 [Compound A30, N-(4-(4-amino-1-isopropyl-7-((1r,4r)-4-((2-methoxyethyl)amino)cyclohexyl)-1H-pyrazolo[4,3-c]pyridin-3-yl)-2,5-difluorophenyl)-3-(trifluoromethyl)benzenesulfonamide]	8.42	7.03
COCCN[C@H]1CC[C@H](c2cnc(N)c3c(-c4cc(F)c(NS(=O)(=O)c5cc(F)ccc5F)cc4F)nn(C(C)C)c32)CC1 [Compound A31, N-(4-(4-amino-1-isopropyl-7-((1r,4r)-4-((2-methoxyethyl)amino)cyclohexyl)-1H-pyrazolo[4,3-c]pyridin-3-yl)-2,5-difluorophenyl)-2,5-difluorobenzenesulfonamide]	8.07	7.41
COCCN[C@H]1CC[C@H](c2cnc(N)c3c(-c4cc(F)c(NS(=O)(=O)c5ccc(F)cc5)cc4F)nn(C(C)C)c32)CC1 [Compound A32, N-(4-(4-amino-1-isopropyl-7-((1r,4r)-4-((2-methoxyethyl)amino)cyclohexyl)-1H-pyrazolo[4,3-c]pyridin-3-yl)-2,5-difluorophenyl)-4-fluorobenzenesulfonamide]	7.77	6.96
COCCN(CCOC)[C@H]1CC[C@H](c2cnc(N)c3c(-c4cc(F)c(NS(=O)(=O)c5ccccc5F)cc4F)nn(C(C)C)c32)CC1 [Compound A35, N-(4-(4-amino-7-((1r,4r)-4-(bis(2-methoxyethyl)amino)cyclohexyl)-1-isopropyl-1H-pyrazolo[4,3-c]pyridin-3-yl)-2,5-difluorophenyl)-2-fluorobenzenesulfonamide]	7.22	7.26
COCCN(C)[C@H]1CC[C@H](c2cnc(N)c3c(-c4cc(F)c(NS(=O)(=O)c5ccccc5F)cc4F)nn(C(C)C)c32)CC1 [Compound A36, N-(4-(4-amino-1-isopropyl-7-((1r,4r)-4-((2-methoxyethyl)(methyl)amino)cyclohexyl)-1H-pyrazolo[4,3-c]pyridin-3-yl)-2,5-difluorophenyl)-2-fluorobenzenesulfonamide]	7.89	7.74
COCCN[C@H]1CC[C@H](c2cnc(N)c3c(-c4cc(F)c(NS(=O)(=O)c5ccccc5F)cc4F)nn(C(C)C)c32)CC1 [Compound A37, N-(4-(4-amino-1-isopropyl-7-((1r,4r)-4-((2-methoxyethyl)amino)cyclohexyl)-1H-pyrazolo[4,3-c]pyridin-3-yl)-2,5-difluorophenyl)-2-fluorobenzenesulfonamide]	7.92	7.70
CC(C)n1nc(-c2cc(F)c(NS(=O)(=O)c3ccccc3F)cc2F)c2c(N)ncc([C@H]3CC[C@H](N(C)C4COC4)CC3)c21 [Compound A38]	7.92	7.89
CC(C)n1nc(-c2ccc(NS(=O)(=O)Cc3ccccc3Cl)c(F)c2)c2c(N)ncc([C@H]3CC[C@H](NC4COC4)CC3)c21 [Compound A39, N-(4-(4-amino-1-isopropyl-7-((1r,4r)-4-(oxetan-3-ylamino)cyclohexyl)-1H-pyrazolo[4,3-c]pyridin-3-yl)-2-fluorophenyl)-1-(2-chlorophenyl)methanesulfonamide]	9.52	8.77
CC(C)n1nc(-c2cc(F)c(NS(=O)(=O)c3ccccc3F)cc2F)c2c(N)ncc([C@H]3CC[C@H](N(C)C)CC3)c21 [Compound A40, N-(4-(4-amino-7-((1r,4r)-4-(dimethylamino)cyclohexyl)-1-isopropyl-1H-pyrazolo[4,3-c]pyridin-3-yl)-2,5-difluorophenyl)-2-fluorobenzenesulfonamide]	8.25	7.57
Nc1ncc([C@H]2CC[C@H](NC3COC3)CC2)c2c1c(-c1ccc(NS(=O)(=O)Cc3ccccc3F)c(F)c1)nn2C1CC1 [Compound A54, N-(4-(4-amino-1-cyclopropyl-7-((1r,4r)-4-(oxetan-3-ylamino)cyclohexyl)-1H-pyrazolo[4,3-c]pyridin-3-yl)-2-fluorophenyl)-1-(2-fluorophenyl)methanesulfonamide]	9.05	8.05
Nc1ncc([C@H]2CC[C@H](NC3COC3)CC2)c2c1c(-c1ccc(NS(=O)(=O)Cc3ccccc3Cl)c(F)c1)nn2C1CC1 [Compound A55, N-(4-(4-amino-1-cyclopropyl-7-((1r,4r)-4-(oxetan-3-ylamino)cyclohexyl)-1H-pyrazolo[4,3-c]pyridin-3-yl)-2-fluorophenyl)-1-(2-chlorophenyl)methanesulfonamide]	9.15	8.14
Nc1ncc([C@H]2CC[C@H](NC3COC3)CC2)c2c1c(-c1ccc(NS(=O)(=O)c3ccccc3Cl)c(F)c1)nn2C1CC1 [Compound A56, N-(4-(4-amino-1-cyclopropyl-7-((1r,4r)-4-(oxetan-3-ylamino)cyclohexyl)-1H-pyrazolo[4,3-c]pyridin-3-yl)-2-fluorophenyl)-2-chlorobenzenesulfonamide]	8.46	7.82
COCC(C)N[C@H]1CC[C@H](c2cnc(N)c3c(-c4ccc(NS(=O)(=O)Cc5ccccc5Cl)c(F)c4)nn(C(C)C)c32)CC1 (stereo partly drawn) [Compound A58, N-(4-(4-amino-1-isopropyl-7-((1r,4r)-4-((1-methoxypropan-2-yl)amino)cyclohexyl)-1H-pyrazolo[4,3-c]pyridin-3-yl)-2-fluorophenyl)-1-(2-chlorophenyl)methanesulfonamide]	9.22	8.31
COCC(C)NC1CC=C(c2cnc(N)c3c(-c4ccc(NS(=O)(=O)c5ccccc5Cl)c(F)c4)nn(C(C)C)c23)CC1 (stereo not drawn) [Compound B3]	8.15	7.96
CCn1nc(-c2cc(F)c(NS(=O)(=O)c3ccccc3F)cc2F)c2c(N)ncc(C3=CCC(NC4COC4)CC3)c21 (stereo not drawn) [Compound B30, N-(4-(4-amino-1-ethyl-7-(4-(oxetan-3-ylamino)cyclohex-1-en-1-yl)-1H-pyrazolo[4,3-c]pyridin-3-yl)-2,5-difluorophenyl)-2-fluorobenzenesulfonamide]	7.09	6.13
CCn1nc(-c2cc(F)c(NS(=O)(=O)c3ccccc3Cl)cc2F)c2c(N)ncc(C3=CCC(NC4COC4)CC3)c21 (stereo not drawn) [Compound B31, N-(4-(4-amino-1-ethyl-7-(4-(oxetan-3-ylamino)cyclohex-1-en-1-yl)-1H-pyrazolo[4,3-c]pyridin-3-yl)-2,5-difluorophenyl)-2-chlorobenzenesulfonamide]	7.33	6.89
CCn1nc(-c2cc(F)c(NS(=O)(=O)Cc3ccccc3Cl)cc2F)c2c(N)ncc(C3=CCC(NC4COC4)CC3)c21 (stereo not drawn) [Compound B32, N-(4-(4-amino-1-ethyl-7-(4-(oxetan-3-ylamino)cyclohex-1-en-1-yl)-1H-pyrazolo[4,3-c]pyridin-3-yl)-2,5-difluorophenyl)-1-(2-chlorophenyl)methanesulfonamide]	7.68	6.47
CCn1nc(-c2ccc(NS(=O)(=O)c3cc(OC)ccc3Cl)c(F)c2)c2c(N)ncc(C3=CCC(NC4COC4)CC3)c21 (stereo not drawn) [Compound B37, N-(4-(4-amino-1-ethyl-7-(4-(oxetan-3-ylamino)cyclohex-1-en-1-yl)-1H-pyrazolo[4,3-c]pyridin-3-yl)-2-fluorophenyl)-2-chloro-5-methoxybenzenesulfonamide]	7.70	7.13
CC(C)n1nc(-c2cc(F)c(NS(=O)(=O)c3ccccc3F)cc2F)c2c(N)ncc(C3=CCC(NC4COC4)CC3)c21 (stereo not drawn) [Compound B60, N-(4-(4-amino-1-isopropyl-7-(4-(oxetan-3-ylamino)cyclohex-1-en-1-yl)-1H-pyrazolo[4,3-c]pyridin-3-yl)-2,5-difluorophenyl)-2-fluorobenzenesulfonamide]	7.10	6.62
CC(C)n1nc(-c2ccc(NS(=O)(=O)c3ccccc3Cl)c(F)c2)c2c(N)ncc(C3=CCC(NCCF)CC3)c21 (stereo not drawn) [Compound B63, N-(4-(4-amino-7-(4-((2-fluoroethyl)amino)cyclohex-1-en-1-yl)-1-isopropyl-1H-pyrazolo[4,3-c]pyridin-3-yl)-2-fluorophenyl)-2-chlorobenzenesulfonamide]	7.80	7.68
